Results as given in the NIST ThermoML archive (doi:10.1021/je9008969).
± gives the expanded uncertainty stated by the source.

Test: cn = amount concentration of the nth substance listed, in mol/dm3
Settings: 298.15 K, 101 kPa, Liquid, Alternating current cell with electrodes

## CC[N+](CC)(CC)CC.[O-][Cl+3]([O-])([O-])[O-] [tetraethylammonium perchlorate] + CC(=O)CC(C)C
c1 = 1.622e-05
  molar conductivity: 0.00917 ± 0.00018 S·m2/mol
c1 = 2.705e-05
  molar conductivity: 0.00898 ± 0.00018 S·m2/mol
c1 = 3.499e-05
  molar conductivity: 0.00888 ± 0.00018 S·m2/mol
c1 = 4.526e-05
  molar conductivity: 0.00874 ± 0.00017 S·m2/mol
c1 = 5.823e-05
  molar conductivity: 0.00852 ± 0.00017 S·m2/mol
c1 = 7.469e-05
  molar conductivity: 0.0083 ± 0.00017 S·m2/mol
c1 = 9.761e-05
  molar conductivity: 0.00812 ± 0.00016 S·m2/mol

## CCCC[n+]1ccccc1.[O-][Cl+3]([O-])([O-])[O-] [1-butylpyridinium perchlorate] + CC(=O)CC(C)C
c1 = 0.0001223
  molar conductivity: 0.00753 ± 0.00015 S·m2/mol
c1 = 0.0001384
  molar conductivity: 0.00709 ± 0.00014 S·m2/mol
c1 = 0.0001791
  molar conductivity: 0.00669 ± 0.00013 S·m2/mol
c1 = 0.0002332
  molar conductivity: 0.00627 ± 0.00013 S·m2/mol
c1 = 0.0003126
  molar conductivity: 0.00579 ± 0.00012 S·m2/mol
c1 = 0.0004224
  molar conductivity: 0.00533 ± 0.00011 S·m2/mol
c1 = 0.0005585
  molar conductivity: 0.0049 ± 9.8e-05 S·m2/mol
c1 = 0.0007544
  molar conductivity: 0.00446 ± 8.9e-05 S·m2/mol
c1 = 0.001004
  molar conductivity: 0.00408 ± 8.2e-05 S·m2/mol
c1 = 0.001345
  molar conductivity: 0.00369 ± 7.4e-05 S·m2/mol
c1 = 0.001798
  molar conductivity: 0.00335 ± 6.7e-05 S·m2/mol
c1 = 0.002419
  molar conductivity: 0.00303 ± 6.1e-05 S·m2/mol
c1 = 0.00324
  molar conductivity: 0.00274 ± 5.5e-05 S·m2/mol
c1 = 0.004348
  molar conductivity: 0.00248 ± 5e-05 S·m2/mol
c1 = 0.005787
  molar conductivity: 0.00225 ± 4.5e-05 S·m2/mol

## C[N+](C)(C)C.[O-][Cl+3]([O-])([O-])[O-] [tetramethylammonium perchlorate] + CC(=O)CC(C)C
c1 = 9.338e-06
  molar conductivity: 0.0113 ± 0.00023 S·m2/mol
c1 = 1.196e-05
  molar conductivity: 0.0112 ± 0.00022 S·m2/mol
c1 = 1.53e-05
  molar conductivity: 0.0111 ± 0.00022 S·m2/mol
c1 = 1.98e-05
  molar conductivity: 0.0108 ± 0.00021 S·m2/mol
c1 = 2.582e-05
  molar conductivity: 0.0105 ± 0.00021 S·m2/mol
c1 = 3.276e-05
  molar conductivity: 0.0101 ± 0.0002 S·m2/mol
c1 = 4.292e-05
  molar conductivity: 0.00975 ± 0.00019 S·m2/mol
c1 = 5.528e-05
  molar conductivity: 0.00934 ± 0.00019 S·m2/mol
c1 = 7.008e-05
  molar conductivity: 0.00894 ± 0.00018 S·m2/mol
c1 = 9.231e-05
  molar conductivity: 0.00847 ± 0.00017 S·m2/mol

## CCCCCCCCCCCCCCCC[n+]1ccccc1.[O-][Cl+3]([O-])([O-])[O-] [1-hexadecylpyridinium perchlorate] + CC(=O)CC(C)C
c1 = 9.238e-05
  molar conductivity: 0.00688 ± 0.00014 S·m2/mol
c1 = 0.0001329
  molar conductivity: 0.0064 ± 0.00013 S·m2/mol
c1 = 0.0001691
  molar conductivity: 0.00608 ± 0.00012 S·m2/mol
c1 = 0.0002261
  molar conductivity: 0.00565 ± 0.00011 S·m2/mol
c1 = 0.0002954
  molar conductivity: 0.00527 ± 0.00011 S·m2/mol
c1 = 0.0004138
  molar conductivity: 0.0048 ± 9.6e-05 S·m2/mol
c1 = 0.0005388
  molar conductivity: 0.00444 ± 8.9e-05 S·m2/mol
c1 = 0.0007214
  molar conductivity: 0.00406 ± 8.1e-05 S·m2/mol
c1 = 0.0009671
  molar conductivity: 0.0037 ± 7.4e-05 S·m2/mol
c1 = 0.001303
  molar conductivity: 0.00335 ± 6.7e-05 S·m2/mol
c1 = 0.001719
  molar conductivity: 0.00306 ± 6.1e-05 S·m2/mol
c1 = 0.002318
  molar conductivity: 0.00277 ± 5.5e-05 S·m2/mol
c1 = 0.00312
  molar conductivity: 0.0025 ± 5e-05 S·m2/mol
c1 = 0.00417
  molar conductivity: 0.00226 ± 4.5e-05 S·m2/mol
c1 = 0.005569
  molar conductivity: 0.00205 ± 4.1e-05 S·m2/mol

## CCCCCCCCCCCCCCCC[N+](C)(C)C.[O-][Cl+3]([O-])([O-])[O-] [N,N,N-trimethyl-1-hexadecanaminium perchlorate] + CC(=O)CC(C)C
c1 = 0.0001172
  molar conductivity: 0.00637 ± 0.00013 S·m2/mol
c1 = 0.0001513
  molar conductivity: 0.006 ± 0.00012 S·m2/mol
c1 = 0.0002096
  molar conductivity: 0.00553 ± 0.00011 S·m2/mol
c1 = 0.0002636
  molar conductivity: 0.00519 ± 0.0001 S·m2/mol
c1 = 0.0003584
  molar conductivity: 0.00476 ± 9.5e-05 S·m2/mol
c1 = 0.0005071
  molar conductivity: 0.00427 ± 8.5e-05 S·m2/mol
c1 = 0.0006588
  molar conductivity: 0.00394 ± 7.9e-05 S·m2/mol
c1 = 0.0008706
  molar conductivity: 0.00359 ± 7.2e-05 S·m2/mol
c1 = 0.001168
  molar conductivity: 0.00326 ± 6.5e-05 S·m2/mol
c1 = 0.001547
  molar conductivity: 0.00295 ± 5.9e-05 S·m2/mol
c1 = 0.002106
  molar conductivity: 0.00265 ± 5.3e-05 S·m2/mol
c1 = 0.002797
  molar conductivity: 0.0024 ± 4.8e-05 S·m2/mol
c1 = 0.00376
  molar conductivity: 0.00216 ± 4.3e-05 S·m2/mol
c1 = 0.005012
  molar conductivity: 0.00194 ± 3.9e-05 S·m2/mol
c1 = 0.006683
  molar conductivity: 0.00175 ± 3.5e-05 S·m2/mol

## CCCCCCC[N+](CCCCCCC)(CCCCCCC)CCCCCCC.[O-][Cl+3]([O-])([O-])[O-] [N,N,N-triheptylheptan-1-aminium perchlorate] + CC(=O)CC(C)C
c1 = 7.179e-05
  molar conductivity: 0.00765 ± 0.00015 S·m2/mol
c1 = 0.0001036
  molar conductivity: 0.00729 ± 0.00015 S·m2/mol
c1 = 0.0001318
  molar conductivity: 0.00704 ± 0.00014 S·m2/mol
c1 = 0.0001594
  molar conductivity: 0.00683 ± 0.00014 S·m2/mol
c1 = 0.0002244
  molar conductivity: 0.00639 ± 0.00013 S·m2/mol
c1 = 0.0002974
  molar conductivity: 0.00603 ± 0.00012 S·m2/mol
c1 = 0.000405
  molar conductivity: 0.00563 ± 0.00011 S·m2/mol
c1 = 0.0005438
  molar conductivity: 0.00525 ± 0.00011 S·m2/mol
c1 = 0.0007266
  molar conductivity: 0.00487 ± 9.7e-05 S·m2/mol
c1 = 0.0009775
  molar conductivity: 0.0045 ± 9e-05 S·m2/mol
c1 = 0.001306
  molar conductivity: 0.00414 ± 8.3e-05 S·m2/mol
c1 = 0.001751
  molar conductivity: 0.0038 ± 7.6e-05 S·m2/mol
c1 = 0.002355
  molar conductivity: 0.00348 ± 7e-05 S·m2/mol
c1 = 0.003149
  molar conductivity: 0.00319 ± 6.4e-05 S·m2/mol
c1 = 0.004208
  molar conductivity: 0.00292 ± 5.8e-05 S·m2/mol
